# From ChEMBL document CHEMBL1136484, “3D-QSAR studies on natural acetylcholinesterase inhibitors of Sarcococca saligna by comparative molecular field analysis (CoMFA)” (Bioorg Med Chem Lett, 2003)
# Biological target: Acetylcholinesterase (Homo sapiens, UniProt P22303)
# Assay: Compound was tested for the in silico inhibition of acetylcholinesterase
# Chain of Acetylcholinesterase (P22303 whole entry): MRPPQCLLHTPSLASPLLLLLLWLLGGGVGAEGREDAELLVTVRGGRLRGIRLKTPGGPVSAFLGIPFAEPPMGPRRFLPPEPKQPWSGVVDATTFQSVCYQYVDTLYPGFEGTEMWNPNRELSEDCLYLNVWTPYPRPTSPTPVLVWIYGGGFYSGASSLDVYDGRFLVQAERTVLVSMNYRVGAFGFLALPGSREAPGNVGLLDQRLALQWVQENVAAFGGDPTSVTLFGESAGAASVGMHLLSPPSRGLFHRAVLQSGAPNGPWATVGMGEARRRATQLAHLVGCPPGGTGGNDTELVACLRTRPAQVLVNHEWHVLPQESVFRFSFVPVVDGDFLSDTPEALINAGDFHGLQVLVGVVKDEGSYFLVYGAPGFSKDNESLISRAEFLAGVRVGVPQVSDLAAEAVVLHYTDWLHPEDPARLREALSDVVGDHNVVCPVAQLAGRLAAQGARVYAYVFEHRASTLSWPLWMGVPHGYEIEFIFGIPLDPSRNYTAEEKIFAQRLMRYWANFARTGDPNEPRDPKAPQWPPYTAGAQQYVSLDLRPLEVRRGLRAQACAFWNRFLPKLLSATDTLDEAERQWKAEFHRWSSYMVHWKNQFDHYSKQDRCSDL
compound,measurement,value
CN[C@H]1CC[C@@]2(C)C(CC[C@H]3[C@@H]4CC[C@H]([C@H](C)N(C)C)[C@@]4(C)CC[C@@H]32)C1 (stereo not given in full),IC50,6.17 µM
C[C@@H]([C@H]1CC[C@H]2[C@@H]3CC[C@H]4C[C@@H](NC(=O)c5ccccc5)CC[C@]4(C)[C@H]3CC[C@]12C)N(C)C [EPIPACHYSAMINE D],IC50,28.8 µM
CN[C@@H](C)C1=CC[C@H]2[C@@H]3CC=C4C[C@@H](OC)CC[C@]4(C)[C@H]3CC[C@]12C,IC50,83.2 µM
C/C=C(\C)C(=O)N[C@@H]1[C@H](OC(C)=O)[C@@H]2CC[C@@H]3[C@H](CC[C@]4(C)[C@@H]([C@H](C)N(C)C)CC[C@@H]34)[C@@]2(C)C[C@@H]1O,IC50,182 µM
CC(=O)N(C)[C@H]1CC[C@@]2(C)[C@@H](CC[C@@H]3[C@@H]2CC[C@]2(C)[C@@H]([C@H](C)N(C)C)CC[C@@H]32)C1,IC50,70.8 µM
CO[C@H]1CC[C@@]2(C)C(=CC[C@@H]3[C@@H]2CC[C@]2(C)C([C@H](C)N(C)C=O)=CC[C@@H]32)C1,IC50,49 µM
CC(=O)O[C@H]1[C@@H](NC(=O)c2ccccc2)[C@@H](O)C[C@]2(C)[C@H]3CC[C@]4(C)[C@@H]([C@H](C)N(C)C)CC[C@H]4[C@@H]3CC[C@@H]12,IC50,229 µM
C/C=C(\C)C(=O)N[C@@H]1[C@H](O)C2CC[C@H]3C4=CC[C@H]([C@H](C)N(C)C)[C@@]4(C)CC[C@@H]3[C@@]2(C)C[C@@H]1O (stereo not given in full),IC50,33.1 µM
C/C=C(\C)C(=O)N[C@@H]1[C@H](OC(C)=O)[C@@H]2CC[C@H]3C4=CC[C@H]([C@H](C)N(C)C)[C@@]4(C)CC[C@@H]3[C@@]2(C)C[C@@H]1O,IC50,61.7 µM
C/C=C(\C)C(=O)N[C@H]1C(OC(C)=O)C[C@@]2(C)C(CC[C@H]3C4CC=C([C@H](C)N(C)C)[C@@]4(C)CC[C@@H]32)[C@H]1OC(C)=O (stereo not given in full),IC50,50.1 µM
CN[C@H]1CC[C@@]2(C)[C@@H](CC[C@@H]3[C@@H]2CC[C@]2(C)C([C@H](C)N(C)C)=CC[C@@H]32)C1,IC50,20.4 µM
CC(=O)O[C@@H]1C2CC[C@H]3C4CC=C([C@H](C)N(C)C)[C@@]4(C)CC[C@@H]3[C@@]2(C)CC[C@@H]1NC(=O)C=C(C)C (stereo not given in full),IC50,5.25 µM
CC(=O)N[C@H]1CC[C@@]2(C)[C@@H](CC[C@@H]3[C@@H]2CC[C@]2(C)[C@@H]([C@H](C)N(C)C)CC[C@@H]32)C1,IC50,69.2 µM
C/C=C(\C)C(=O)N[C@H]1CC[C@@]2(C)C(=CC[C@H]3C4=CC[C@H]([C@H](C)N(C)C)[C@@]4(C)CC[C@@H]32)C1=O,IC50,5.75 µM
C/C=C(\C)C(=O)NC1=CC[C@@]2(C)[C@@H](CC[C@H]3C4CC[C@H]([C@H](C)N(C)C)[C@@]4(C)CC[C@@H]32)C1=O (stereo not given in full),IC50,13.8 µM
C[C@@H]([C@H]1CC[C@H]2[C@@H]3CC[C@H]4C(=O)C(NC(=O)c5ccccc5)=CC[C@]4(C)[C@H]3CC[C@]12C)N(C)C,IC50,5.25 µM
C[C@@H]([C@H]1CC[C@H]2[C@@H]3CC[C@H]4C[C@@H](N(C)C(=O)/C=C/c5ccccc5)CC[C@]4(C)[C@H]3CC[C@]12C)N(C)C [SALIGCINNAMIDE],IC50,19.5 µM
C/C=C(\C)C(=O)N[C@H]1CC[C@@]2(C)C(=CC[C@H]3[C@@H]4CC[C@H]([C@H](C)N(C)C)[C@@]4(C)CC[C@@H]32)[C@H]1O,IC50,30.2 µM
C/C=C(\C)C(=O)N[C@@H]1C=C2CC[C@H]3[C@@H]4CC[C@H]([C@H](C)N(C)C)[C@@]4(C)CC[C@@H]3[C@@]2(C)C[C@@H]1O,IC50,15.8 µM
CO[C@@H]1CC2=CC[C@@H]3[C@H](CC[C@]4(C)C([C@H](C)N(C)C)=CC[C@@H]34)[C@@]2(C)C[C@@H]1O,IC50,251 µM
C[C@H](NC=O)[C@H]1CC[C@H]2[C@@H]3CC[C@H]4C[C@@H](N(C)C)CC[C@]4(C)[C@H]3CC[C@]12C,IC50,6.46 µM
C[C@@H]([C@H]1CC[C@H]2[C@@H]3CC=C4C[C@@H](N(C)C)CC[C@]4(C)[C@H]3CC[C@]12C)N(C)C,IC50,39.8 µM
CC(=O)N(C)[C@@H](C)[C@H]1CC[C@H]2[C@@H]3CC[C@H]4C[C@@H](N(C)C)CC[C@]4(C)[C@H]3CC[C@]12C,IC50,50.1 µM
CC(=O)N(C)[C@@H](C)[C@H]1CC[C@H]2[C@@H]3CC=C4C[C@@H](N(C)C)CC[C@]4(C)[C@H]3CC[C@]12C,IC50,20 µM
CO[C@H]1CC[C@@]2(C)C(=CC[C@H]3[C@@H]4CC[C@H]([C@H](C)N(C)C)[C@@]4(C)CC[C@@H]32)C1,IC50,42.7 µM
C/C(=C\C(=O)N(C)[C@H]1CC[C@@]2(C)[C@@H](CC[C@@H]3[C@@H]2CC[C@]2(C)[C@@H]([C@H](C)N(C)C)CC[C@@H]32)C1)C(C)C,IC50,6.46 µM
C/C(=C\C(=O)N(C)[C@H]1CC[C@@]2(C)[C@@H](CC[C@@H]3[C@@H]2CC[C@]2(C)C([C@H](C)N(C)C)=CC[C@@H]32)C1)C(C)C,IC50,6.17 µM
C/C=C(\C)C(=O)N[C@H]1CC[C@@]2(C)C(=CC[C@H]3[C@@H]4CC[C@H]([C@H](C)N(C)C)[C@@]4(C)CC[C@@H]32)C1=O,IC50,7.08 µM
C/C=C(\C)C(=O)N[C@@H]1C=C2CC[C@H]3C4=CC[C@H]([C@H](C)N(C)C)[C@@]4(C)CC[C@@H]3[C@@]2(C)CC1,IC50,7.76 µM
C[C@@H]([C@H]1CC[C@H]2[C@@H]3CC[C@H]4C[C@@H](NC(=O)c5ccccc5)[C@@H](O)C[C@]4(C)[C@H]3CC[C@]12C)N(C)C,IC50,77.6 µM
